In publication PMC8480901 (PLoS ONE, 2021):
Values joined by “and” are separate entries in the source; they are usually repeats but may differ in a detail not shown here. Equal entries are not always repeated.

Tested on: human PBMCs
Assay: LPS-induced cytokine and chemokine levels in human PBMC supernatant (Luminex, ELISA)
Type: cell-based
Settings: for TNF-α % reduction / TNF-α [pg/mL], Mean / TNF-α [pg/mL], individual value / GM-CSF % reduction / GM-CSF [pg/mL], Mean / GM-CSF [pg/mL], individual value / IL-1β % reduction / IL-1β [pg/mL], Mean / IL-1β [pg/mL], individual value / IL-6 % reduction / IL-6 [pg/mL], Mean / IL-6 [pg/mL], individual value / IL-8 % reduction / IL-8 [pg/mL], Mean / IL-8 [pg/mL], individual value: LPS-stimulated human PBMC supernatant

## C=C[C@]1(C)C[C@@H](OC(=O)CS[C@@H]2CC[C@@H](N)C[C@H]2O)[C@]2(C)[C@H](C)CC[C@]3(CCC(=O)[C@H]32)[C@@H](C)[C@@H]1O [Lefamulin]
0.03 µM
  TNF-α % reduction: 19%
  TNF-α [pg/mL], Mean: 7210 pg/mL
  TNF-α [pg/mL], individual value: 7885 pg/mL and 6534 pg/mL
0.1 µM
  GM-CSF % reduction: -3%
  GM-CSF [pg/mL], Mean: 677 pg/mL
  GM-CSF [pg/mL], individual value: 676 pg/mL and 678 pg/mL
  IL-1β % reduction: 0.28%
  IL-1β [pg/mL], Mean: 12749 pg/mL
  IL-1β [pg/mL], individual value: 11912 pg/mL and 13586 pg/mL
  IL-6 % reduction: 4%
  IL-6 [pg/mL], Mean: 33560 pg/mL
  IL-6 [pg/mL], individual value: 32908 pg/mL and 34212 pg/mL
  IL-8 % reduction: 6%
  IL-8 [pg/mL], Mean: 2899 pg/mL
  IL-8 [pg/mL], individual value: 2852 pg/mL and 2946 pg/mL
  TNF-α % reduction: 9%
  TNF-α [pg/mL], Mean: 8157 pg/mL
  TNF-α [pg/mL], individual value: 7880 pg/mL and 8433 pg/mL
0.3 µM
  GM-CSF % reduction: -3%
  GM-CSF [pg/mL], Mean: 677 pg/mL
  GM-CSF [pg/mL], individual value: 692 pg/mL and 662 pg/mL
  IL-1β % reduction: -12%
  IL-1β [pg/mL], Mean: 14379 pg/mL
  IL-1β [pg/mL], individual value: 14814 pg/mL and 13945 pg/mL
  IL-6 % reduction: -0.0984%
  IL-6 [pg/mL], Mean: 34943 pg/mL
  IL-6 [pg/mL], individual value: 35534 pg/mL and 34352 pg/mL
  IL-8 % reduction: -13%
  IL-8 [pg/mL], Mean: 3213 pg/mL
  IL-8 [pg/mL], individual value: 3328 pg/mL and 3097 pg/mL
  TNF-α % reduction: -1.74%
  TNF-α [pg/mL], Mean: 9093 pg/mL
  TNF-α [pg/mL], individual value: 9382 pg/mL and 8804 pg/mL
1 µM
  GM-CSF % reduction: -5.35%
  GM-CSF [pg/mL], Mean: 693 pg/mL
  GM-CSF [pg/mL], individual value: 646 pg/mL and 740 pg/mL
  IL-1β % reduction: -4%
  IL-1β [pg/mL], Mean: 13318 pg/mL
  IL-1β [pg/mL], individual value: 12337 pg/mL and 14300 pg/mL
  IL-6 % reduction: -4%
  IL-6 [pg/mL], Mean: 36293 pg/mL
  IL-6 [pg/mL], individual value: 36311 pg/mL and 36275 pg/mL
  IL-8 % reduction: -10%
  IL-8 [pg/mL], Mean: 3154 pg/mL
  IL-8 [pg/mL], individual value: 3230 pg/mL and 3077 pg/mL
  TNF-α % reduction: -5.41%
  TNF-α [pg/mL], Mean: 9420 pg/mL
  TNF-α [pg/mL], individual value: 9688 pg/mL and 9151 pg/mL
3 µM
  GM-CSF % reduction: -8%
  GM-CSF [pg/mL], Mean: 711 pg/mL
  GM-CSF [pg/mL], individual value: 719 pg/mL and 703 pg/mL
  IL-1β % reduction: 4%
  IL-1β [pg/mL], Mean: 12272 pg/mL
  IL-1β [pg/mL], individual value: 10817 pg/mL and 13728 pg/mL
  IL-6 % reduction: -8.52%
  IL-6 [pg/mL], Mean: 37884 pg/mL
  IL-6 [pg/mL], individual value: 36958 pg/mL and 38809 pg/mL
  IL-8 % reduction: -3%
  IL-8 [pg/mL], Mean: 3044 pg/mL
  IL-8 [pg/mL], individual value: 3098 pg/mL and 2991 pg/mL
  TNF-α % reduction: -12%
  TNF-α [pg/mL], Mean: 9993 pg/mL
  TNF-α [pg/mL], individual value: 8826 pg/mL and 11161 pg/mL
10 µM
  GM-CSF % reduction: -9%
  GM-CSF [pg/mL], Mean: 717 pg/mL
  GM-CSF [pg/mL], individual value: 744 pg/mL and 689 pg/mL
  IL-1β % reduction: -2.68%
  IL-1β [pg/mL], Mean: 13127 pg/mL
  IL-1β [pg/mL], individual value: 12893 pg/mL and 13362 pg/mL
  IL-6 % reduction: -16%
  IL-6 [pg/mL], Mean: 40496 pg/mL
  IL-6 [pg/mL], individual value: 38929 pg/mL and 42063 pg/mL
  IL-8 % reduction: 13%
  IL-8 [pg/mL], Mean: 2781 pg/mL
  IL-8 [pg/mL], individual value: 2867 pg/mL and 2696 pg/mL
  TNF-α % reduction: -3.32%
  TNF-α [pg/mL], Mean: 9234 pg/mL
  TNF-α [pg/mL], individual value: 8438 pg/mL and 10030 pg/mL
30 µM
  GM-CSF % reduction: -38%
  GM-CSF [pg/mL], Mean: 905 pg/mL
  GM-CSF [pg/mL], individual value: 938 pg/mL and 871 pg/mL
  IL-1β % reduction: -19%
  IL-1β [pg/mL], Mean: 15264 pg/mL
  IL-1β [pg/mL], individual value: 15102 pg/mL and 15425 pg/mL
  IL-6 % reduction: -24%
  IL-6 [pg/mL], Mean: 43122 pg/mL
  IL-6 [pg/mL], individual value: 44285 pg/mL and 41958 pg/mL
  IL-8 % reduction: 27%
  IL-8 [pg/mL], Mean: 2563 pg/mL
  IL-8 [pg/mL], individual value: 2485 pg/mL and 2640 pg/mL
  TNF-α % reduction: 33%
  TNF-α [pg/mL], Mean: 6044 pg/mL
  TNF-α [pg/mL], individual value: 6330 pg/mL and 5758 pg/mL
100 µM
  GM-CSF % reduction: -97%
  GM-CSF [pg/mL], Mean: 1293 pg/mL
  GM-CSF [pg/mL], individual value: 1274 pg/mL and 1313 pg/mL
  IL-1β % reduction: -71%
  IL-1β [pg/mL], Mean: 21910 pg/mL
  IL-1β [pg/mL], individual value: 21940 pg/mL and 21880 pg/mL
  IL-6 % reduction: 23%
  IL-6 [pg/mL], Mean: 26707 pg/mL
  IL-6 [pg/mL], individual value: 26414 pg/mL and 27001 pg/mL
  IL-8 % reduction: 11%
  IL-8 [pg/mL], Mean: 2809 pg/mL
  IL-8 [pg/mL], individual value: 2812 pg/mL and 2806 pg/mL
  TNF-α % reduction: 74%
  TNF-α [pg/mL], Mean: 2354 pg/mL
  TNF-α [pg/mL], individual value: 2393 pg/mL and 2315 pg/mL
Human PBMCs, concentrations tested (100 μM not shown)
  levels of the measured LPS-induced cytokines, chemokines, or MMP-9 in supernatants: little to no reduction
